Data reported in patent publication US8932997B2, “Anti-accretion agents for drilling fluids” (Lamberti SpA, priority 2008, dated 2015).

Legend:
[1] = Anti-accretion test (hot roll cells with steel bars and shale chips); conditions: additive amount per 350 ml test fluid as in fluid description; 50 g Arne clay chips; rolled 30 minutes at room temperature
Skeletonema costatum = experiment: Marine algal growth inhibition test (ISO/DP 10253); type: cell-based; conditions: concentrations 0.1 to 100.0 mg/l seawater
Experimental: The test was carried out according the ISO protocol ISO/DP 10253—Water quality—Marine algal growth inhibition test with Skeletonema costatum and Phaeodactylum tricornutum.
A culture of the marine algae Skeletonema costatum was exposed to a series of test concentrations of Additive 1 In addition to a control test, concentrations ranging from 0.1 to 100.0 mg/I seawater were tested. The test lasted for 72 hours, and EC50 (72 hours) was calculated to be higher than 10.0 mg/litre.

Compound | accretion % (wt % of shale accreted on metal surface) [1] [%] | EC50 (72 hours) algal growth inhibition (Skeletonema costatum)
[Cl-].[K+] [KCl, potassium chloride, reference compound] | >70 | 
triethanolamine trioleate [Additive 1] | 10 | higher than 10.0 mg/litre
